{"source": "patent US20060111308A1", "about": "“Methods and compositions for therapeutic treatment” (priority 2004, published 2006)", "key": {"[1]": {"tested_on": "adult subjects with chronic pain", "test": "Human study of the effects of oral quercetin (Q) and analgesics on sedation, concentration and pain", "format": "in vivo", "procedure": "An empiric trial on the effects of oral quercetin (Q) on sedation, concentration, and pain was conducted. Inclusion criteria included ongoing pain of at least 4/10 on the Likert scale, poor tolerance of current analgesic regimen (complaints of sedation, dizziness, inability to focus), and willingness to complete daily diaries.\nApproximately 16 adult subjects with chronic pain were screened and 9 subjects were admitted to the trial. Their pain disorders included peripheral neuropathy (2), facial pain (2), cervical radiculopathy (2), lumbar spine disease (3). Their pre-existing medications included short acting opioids (Vicodin TID, Tramadol 50 mg Q4-6), high dose, long acting opioids (OxyContin 240 mg, Methadone 400 mg), Gabapentin (900 mg and 2700 mg), Ativan, Flexeril, and Soma 350 mg. Seven of the subjects were using at least two analgesic medications. Two subjects were using no current medications because of prior histories of sedation and dizziness during opioid trials.\nQ (Sigma) 500 mg per gel capsule was compounded and supplied to all subjects by overnight mail. Subjects were instructed to complete daily diaries for 7 days and continue their baseline medications and regular activities. On approximately the 7th day, they were asked to begin twice daily dosing of 2 Q (1000 mg) capsules (total daily dose of Q, 2000 mg). Diaries were completed for 7 days. Individual diaries included rating sleep interference, focus, pain now, and worst pain over the prior 24 hours. Subjects were instructed that concomitant pain medications should not be altered without speaking with the investigator. Subjects were advised that they would be contacted by telephone every day or every other day to assess progress in the trial and any side effects associated with the addition of Q. At the end of the trial, patients were interviewed. They were asked to rate their satisfaction with the study medication (−2−+2) and its ability to modulate the CNS effects of their pain medications."}, "[2]": {"details": "in vivo; cited from earlier work"}, "[3]": {"tested_on": "mdr1a (P-gP) knockout (−/−) mouse", "details": "cited from earlier work; for sensitivity to fetal cleft palate: same doses as knockout mice"}, "[4]": {"details": "after 7 days of co-administration of Q (2000 mg daily, oral) and analgesics, FIG. 16"}, "[5]": {"details": "scale of −2 to 2, patients on opiate or MSD and Q"}}, "note": "Like-named read-outs stand apart in the source and are kept apart here.", "data": [{"compound": "O=c1c(O)c(-c2ccc(O)c(O)c2)oc2cc(O)cc(O)c12", "note": "[Q, quercetin]", "values": [{"measurement": "mean ratings for concentration improved", "setting": "[1]; [4]", "value": "over 60%"}, {"measurement": "mean ratings for sleep improved", "setting": "[1]; [4]", "value": "more than 25%"}, {"measurement": "mean ratings for worst pain improved", "setting": "[1]; [4]", "value": "more than 25%"}, {"measurement": "mean ratings for pain now decreased", "setting": "[1]; after 7 days of co-administration of Q (2000 mg daily, oral) and analgesics, all patients taking analgesic medications and Q, FIG. 16", "value": "more than 70%"}, {"measurement": "worst pain in the last 24 hrs (NPRS)", "setting": "[1]; all patients after taking Q, 1 no pain, 10 worst, FIG. 7", "value": "overall improvement"}, {"measurement": "concentration rating (short term memory, focus, wakefulness)", "setting": "[1]; all patients after taking Q, 1 perfect concentration, 10 worst, FIG. 6", "value": "overall improvement"}, {"measurement": "pain at the time the patients were called (pain now)", "setting": "[1]; all patients after taking Q, FIG. 8", "value": "overall improvement"}, {"measurement": "sleep rating", "setting": "[1]; all patients after taking Q, scale to 10 as worst, FIG. 5", "value": "overall improvement"}, {"measurement": "global assessment on the scale of −2 to 2", "setting": "[1]; all patients on opiate or MSD (membrane stabilizing drug) and modulator (Q), FIG. 15", "value": "overall improvement"}, {"measurement": "central withdrawal", "setting": "[1]; opioid users taking Q", "value": "noted in 3"}, {"measurement": "patients reporting 2 in global assessment", "setting": "[1]; [5]", "value": "three"}, {"measurement": "patients reporting −2 in global assessment", "setting": "[1]; [5]", "value": "none"}, {"measurement": "pain on the scale from 1-10 (worst pain in last 24 hrs, pain at time of call)", "setting": "[1]; two patients not on baseline meds, poor tolerance of systemic medications, FIG. 13 and 14", "value": "brought the pain down"}, {"measurement": "serum half-life", "setting": "[2]", "value": "19 to 25", "unit": "h"}]}, {"compound": "CC[C@H](C)[C@H]1O[C@]2(C=C[C@@H]1C)C[C@@H]1C[C@@H](C/C=C(\\C)[C@@H](O[C@H]3C[C@H](OC)[C@@H](O[C@H]4C[C@H](OC)[C@@H](O)[C@H](C)O4)[C@H](C)O3)[C@@H](C)/C=C/C=C3\\CO[C@@H]4[C@H](O)C(C)=C[C@@H](C(=O)O1)[C@]34O)O2", "note": "[avermectin]", "values": [{"measurement": "sensitivity to fetal cleft palate", "setting": "[3]; heterozygous (+/−) mice", "value": "less sensitive"}, {"measurement": "sensitivity to fetal cleft palate", "setting": "[3]; homozygous (+/+) mice", "value": "insensitive"}, {"measurement": "incidence of fetal cleft palate", "setting": "[3]; mdr1a knockout mice", "value": 100, "unit": "%"}]}]}
